Laboratory results: patent publication US20060211628A1 (priority 2002, published 2006)

Key:
[1] = in vivo; cited from earlier work
[2] = tested on: endogenous reduced glutathione (GSH); test: In vivo antioxidation: striatum/serum endogenous GSH after IP injection of compound A; design: species or system Balb/c mice; conditions: injected IP, 100-300 mg/kg, three hours post injection
Protocol: With reference now to FIG. 3. To this end, three groups of two months old Balb/c mice containing two animals in each group were injected intraperitonealy (IP) with 100-300 mg/kg body weight of compound A. Blood samples were drawn from the tail three hours post injection and then the animals were sacrificed and either the corpus striatum or the whole brain were removed and analyzed for GSH levels.
GSH levels were determined using the experimental procedures as described hereinbelow and/or the GSH-400 kit (Oxis International, Inc.).
Preparation of brain homogenates: Animals were rapidly killed and exsanguinated to remove excess blood from the brain. The brain of each animal was rinsed in a beaker containing water, lightly blotted to dry and were weighted. The striatums were transferred into a hand-homogenizer tube and each was homogenized using a constant number (e.g., 20) of up and down strokes of the hand-homogenizer pestle. Each of the homogenates was poured into a centrifuge tube and centrifuged for 10,000×g for 5 min. The supernatant was used for GSH determination as follows.
GSHAssay: For each measurement, 200 μl of sample were incubated with 20 μl DTNB [5,5′ dithio bis(2-nitrobenzoic acid)] for 1 hour in 37° C. Final absorbance was measured at 400 nm. Similar results were obtained using the GSH-400 kit. […]

MOG-induced EAE = test: Prevention of MOG-induced experimental autoimmune encephalomyelitis (EAE); format: in vivo, C3H.SW female mice; conditions: 200 mg/kg IP twice a day plus 300 mg/kg in drinking water
Protocol: EAE was induced in C3H.SW female mice (4-6 weeks old, Harlen, Rehovot, Israel) by immunization with the peptide encompassing amino acids 35-55 of rat myelin oligodendrocyte glycoprotein (MOG). Synthesis was carried out by the Weizmann Institute Synthesis Unit, using a solid-phase technique on a peptide synthesizer (Applied Biosystems Inc., Foster City, Calif. City). Mice were injected subcutaneously at one site in the flank with a 200 μl emulsion containing 75 μg MOG peptide in complete Freund's adjuvant (CFA). An identical booster immunization was given at one site of the other flank one week later. Mice (n=16) were injected intraperitonealy with Compound J (200 mg/kg) twice a day and in addition, were given Compound J orally in the drinking water (300 mg/kg) on day 1 of the MOG injection and for additional 35 days post injection. Control mice (n=16) were injected twice a day with 200 mg of saline for the same time period. 0=no clinical symptom's; 1=loss of tail tonicity; 2=partial hind limb paralysis; 3=complete hind limb paralysis; 4=paralysis of four limbs; 5=total paralysis; 6=death.

[3] = Crossing the blood-brain-barrier: compound J level in brain extracts by fluorescent labeling and HPLC; format: in vivo, C57BL/6J mice; conditions: IP injection 0.25-4 mg, brain extracts 15 min later
Protocol: Detection of compound j (referred to in this Example also as CEA) was established using high performance liquid chromatography (HPLC). To this end, CEA was treated with a fluorescent thiolyte reagent (monobromobimane reagent) and analyzed on an HPLC column.
Crossing the blood-brain-barrier: In vivo experiments were carried out on C57BL/6J mice (15 grams) injected IP with compound J. After incubation (15 min, 60 min or 4 hours) the mice were anesthetized with ether and blood samples were drawn. Then mice underwent perfusion with 50 ml of saline, injected into the right ventricle. The levels of compound I in the brain and in the plasma were detected by selective fluorescent labeling using high performance liquid chromatography (HPLC).
Increasing amounts of compound J were injected IP and 15 min later, mice were perfused with saline and compound J levels in the brain extracts were determined by HPLC chromatography (FIG. 5b), as compared to a control, pure, uninjected compound J (FIG. 5a).

[4] = tested on: Neuroblastoma SHSY5Y (NB) cells; test: Protection from oxidative stress in vitro, neutral red survival assay; format: cell-based; conditions: compound at 0.1 mM
Protocol: Protection from oxidative stress in vitro: Neuroblastoma SHSY5Y (NB) cells were maintained in Dulbeco's Modified Eagle's Medium (DMEM), supplemented with 8% FCS and 8% horse serum, penicillin (25 μg/ml), streptomycin (25 μg/ml), 2 mM L-glutamine and 400 μg/ml G418 (Gibco/BRL). For protection experiments cells were subcultured (in 2% serum) to poly-L-lysine-coated 96-well microtiter plates (Nunc), 100 μl of 5×10^5 cells/ml, CEA was applied to the cells in each well and 4 hours later DA, L-dopa (levodopa), 6-OHDA and MPP+ were added for 24 hours.
Survival was assayed by adding neutral red (0.34%, Sigma) to cells in DCCM-1 medium (0.1 ml/well, Bet-Haemek) and incubation for 2 hour at 37° C. The cells were then washed with cold PBS containing 10 mM MgCl2 and the dye was dissolved in 50% ethanol in 50% Somerson buffer (70 mM sodium citrate, 30 mM citric acid, 0.1 N HCl). ELISA reader (590 nm) was used to measure the remaining color intensity.

GSH = test: Brain GSH levels after IP injection of compound J (HPLC); format: in vivo, C57BL/6J mice; conditions: brain extract after IP injection

Compound: CC(=O)N[C@@H](CS)C(=O)O [N-acetyl-cysteine]
- lethal dose 50% (LD50) [1]: 5,050 mg/kg

Compound: CCOC(=O)[C@H](CS)NC(C)=O [compound A, N-acetyl cysteine ethyl ester]
- Level of endogenous GSH in striatum [2]: increases

Compound: CC(=O)NC(CS)C(N)=O (centres unmarked) [compound J]
- Incidence and clinical severity of the disease (MOG-induced EAE): markedly reduced
- Mice remaining disease free (MOG-induced EAE; day 1 to 35 days post injection, n=16): 15 out of the 16
- Mean of total clinical score (0-6 scale) (MOG-induced EAE; n=16, SE): 0.1+0.1
- Compound J in the brain [3]: concentration-dependent increase
- Protection of NB cells against the toxicity of DA, L-dopa, 6-OHDA (0.1-0.25 mM) and MPP+ (0.5-2 mM) [4]: protect
- GSH levels increase over untreated animals (GSH): up to 46%
